Active and inactive are the calls of the source. The calls are words filed in the database; no cut-off is given here.

For data set [1], the system named is Mus musculus. Kind of data set: Anti-obesity activity in high-sugar western diet induced obesity C57BL/6j mouse model assessed as decrease in subcutaneous fat pad weight at 130 mg/kg per day, po administered via gavage daily measured after 3 weeks. The class given is functional, organism-based.
Data set [2] in a line: Observed volume of distribution at steady state in C57BL/6 mouse at 1 mg/kg, iv measured upto 24 hrs by LC/MS-MS analysis. The class given is ADME, organism-based. The conditions noted are these: in vivo, read-out: Vdss.
The subject of data set [3] is Mus musculus. As to the kind of experiment: Anti-obesity activity in high-fat diet induced obesity C57BL/6 mouse model assessed as increase in locomotory activity at 130 mg/kg, po measured upto 4 hrs by indirect calorimetric analysis. The format is functional, organism-based.
In data set [4] the test system is Mus musculus. Kind of data set: Anti-obesity activity in high-sugar western diet induced obesity C57BL/6j mouse model assessed as decrease in insulin level at 130 mg/kg per day, po administered measured after 2 weeks. The class given is functional, organism-based.
In data set [5] the test system is Mus musculus. Kind of data set: Anti-obesity activity in high-fat diet induced obesity C57BL/6 mouse model assessed as increase in oxygen consumption at 130 mg/kg, po measured upto 4 hrs by indirect calorimetric analysis. The format is functional, organism-based.
A short description of data set [6]: Drug distribution in fasted C57BL/6j mouse white adipose tissue at 10 mg/kg, po measured after 2 hrs by LC-MS/MS analysis. The format is ADME, organism-based. The following applies: in vivo.
Data set [7] in a line: Drug distribution in fasted C57BL/6j mouse […] white adipose tissue at 130 mg/kg, po by LC-MS/MS analysis. The format is ADME, organism-based. The conditions noted are these: in vivo.
Data set [8] has as its system Mus musculus. Kind of data set: Anti-obesity activity in high-sugar western diet induced obesity C57BL/6j mouse model assessed as decrease in glucose level AUC at 130 mg/kg per day, po administered measured after 10 days in presence of glucose by glucose tolerance test. The class given is functional, organism-based. The conditions noted are these: time 10.0 day.
Data set [9] is described as follows: Half life in Swiss albino mouse at 10 mg/kg, po administered via gavage measured upto 24 hrs by LC/MS-MS analysis. The format is ADME, organism-based. The following applies: in vivo.
Data set [10] concerns Mus musculus. Kind of data set: Anti-obesity activity in high-sugar western diet induced obesity C57BL/6j mouse model assessed as food consumption at 130 mg/kg per day, po administered for 14 days ( Rvb = 2.5 +/- 0.5 g/day per mouse). The conditions noted are these: time 14 day. The format is functional.
The subject of data set [11] is Mus musculus. As to the kind of experiment: Anti-obesity activity in high-sugar western diet induced obesity C57BL/6j mouse model assessed as effect on fecal triglyceride level at 130 mg/kg per day, po administered via gavage daily measured after 3 weeks by colorimetric analysis. The format is functional, organism-based.
Data set [12] concerns Mus musculus. Kind of data set: Anti-obesity activity in fasted C57BL/6j mouse assessed as decrease in serum glucose level at 130 mg/kg per day, po administered measured after 2 weeks. The format is functional, organism-based.

For `Oc1nc2nonc2cc1Nc1c(F)c(F)c(F)c(F)c1F`, the result in data set [1], in [3] and in data set [11] was inactive. Moreover, the Vd in [2] was 0.06 L/kg. Moreover, the result in [4], in [5], in data set [8] and in data set [12] was Active. In addition, the Drug uptake result in data set [6] and in data set [7] was “Active” throughout. For the same compound, the t1/2 in data set [9] turned out to be 4.4 h. The Activity in data set [10] is 2.5 g/day.
